Our source for the Ki and Activity values is ChEMBL document CHEMBL1142781, “Chemical modification of the naphthoyl 3-position of JWH-015: in search of a fluorescent probe to the cannabinoid CB2 receptor” (Bioorg Med Chem Lett, 2005).

The structures appear in SMILES notation.

In experiment [1] the target is T1, Cannabinoid receptor 2 (Homo sapiens, UniProt P34972). The experiment can be described thus: In vitro inhibitory activity towards human cannabinoid receptors 2 using fluorescence assay.
T1 sequence (P34972 whole entry): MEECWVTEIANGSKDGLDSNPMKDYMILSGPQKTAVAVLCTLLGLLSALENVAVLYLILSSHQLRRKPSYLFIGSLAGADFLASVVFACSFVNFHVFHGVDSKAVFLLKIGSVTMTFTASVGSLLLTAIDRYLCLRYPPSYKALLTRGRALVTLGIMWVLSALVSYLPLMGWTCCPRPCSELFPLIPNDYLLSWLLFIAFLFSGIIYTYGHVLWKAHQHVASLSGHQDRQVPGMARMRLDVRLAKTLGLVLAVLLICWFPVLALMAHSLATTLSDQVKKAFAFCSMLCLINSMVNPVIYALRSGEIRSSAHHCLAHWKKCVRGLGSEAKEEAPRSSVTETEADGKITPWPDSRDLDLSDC
The target in experiment [2] is T1, Cannabinoid receptor 2. The experiment is described as follows: Percentage ([35S]GTP-gamma-S binding was determined from basal towards human cannabinoid receptor 2 at 1 uM concentration […]. The format is functional.
Experiment [3] deals with T1, Cannabinoid receptor 2. The experiment can be described thus: In vitro inhibitory activity towards human cannabinoid receptors 2 using fluorescence assay at 10 uM concentration. Further details: scale not given: the % may be the effect or the level left.

Broadly, the Ki is the dissociation constant of the complex between target and ligand, obtained from inhibition or displacement. As to `CCCn1c(C)c(C(=O)c2cc(NC(=O)CN)cc3ccccc23)c2ccccc21`, in experiment [1], the Ki was determined as 420 nM.
Regarding `CCCn1c(C)c(C(=O)c2cccc3ccccc23)c2ccccc21`, the Activity in experiment [2] came out at 142%.
Take `CCCn1c(C)c(C(=O)c2cc(NC(=O)CNc3ccc([N+](=O)[O-])c4nonc34)cc3ccccc23)c2ccccc21`: in experiment [3], the Activity was determined as 25%.
For `CCCn1c(C)c(C(=O)c2cc(N)cc3ccccc23)c2ccccc21`, the Ki in experiment [1] worked out at 191 nM. Also, the Activity in experiment [2] is 151%.
On to `CCCn1c(C)c(C(=O)c2cc([N+](=O)[O-])cc3ccccc23)c2ccccc21`, for which the inhibitory constant (Ki) in experiment [1] turned out to be 143 nM. This compound also came in with an Activity in experiment [2] of 134%.
